# Test results as given in ChEMBL document CHEMBL4680299 (Bioorg Med Chem Lett, 2021).
# Experiments:
# [1] = target: Metabotropic glutamate receptor 8 (Homo sapiens, UniProt O00222); experiment: Positive allosteric modulation of mGluR8 (unknown origin) by calcium mobilization assay; type: functional
# [2] = target: Metabotropic glutamate receptor 1 (Homo sapiens, UniProt Q13255); experiment: Positive allosteric modulation of human mGluR1 in presence of EC20 concentration of glutamate by calcium mobilization assay; type: functional
# [3] = target: Metabotropic glutamate receptor 3 (Homo sapiens, UniProt Q14832); experiment: Positive allosteric modulation of mGluR3 (unknown origin) by calcium mobilization assay; type: functional
# [4] = target: Metabotropic glutamate receptor 6 (Homo sapiens, UniProt O15303); experiment: Positive allosteric modulation of mGluR6 (unknown origin) by calcium mobilization assay; type: functional
# [5] = target: Metabotropic glutamate receptor 5 (Homo sapiens, UniProt P41594); experiment: Positive allosteric modulation of mGluR5 (unknown origin) by calcium mobilization assay; type: functional
# [6] = target: Metabotropic glutamate receptor 7 (Homo sapiens, UniProt Q14831); experiment: Positive allosteric modulation of human mGluR7 in presence of EC20 concentration of L-AP4 by calcium mobilization assay; type: functional
# [7] = target: Metabotropic glutamate receptor 4 (Homo sapiens, UniProt Q14833); experiment: Positive allosteric modulation of human mGluR4 by calcium mobilization assay; type: functional
# [8] = target: Metabotropic glutamate receptor 2 (Homo sapiens, UniProt Q14416); experiment: Positive allosteric modulation of mGluR2 (unknown origin) by calcium mobilization assay; type: functional
# [9] = Protein binding in rat plasma assessed as fraction unbound; type: ADME, cell-free
# Chain of Metabotropic glutamate receptor 7 (Q14831 whole entry): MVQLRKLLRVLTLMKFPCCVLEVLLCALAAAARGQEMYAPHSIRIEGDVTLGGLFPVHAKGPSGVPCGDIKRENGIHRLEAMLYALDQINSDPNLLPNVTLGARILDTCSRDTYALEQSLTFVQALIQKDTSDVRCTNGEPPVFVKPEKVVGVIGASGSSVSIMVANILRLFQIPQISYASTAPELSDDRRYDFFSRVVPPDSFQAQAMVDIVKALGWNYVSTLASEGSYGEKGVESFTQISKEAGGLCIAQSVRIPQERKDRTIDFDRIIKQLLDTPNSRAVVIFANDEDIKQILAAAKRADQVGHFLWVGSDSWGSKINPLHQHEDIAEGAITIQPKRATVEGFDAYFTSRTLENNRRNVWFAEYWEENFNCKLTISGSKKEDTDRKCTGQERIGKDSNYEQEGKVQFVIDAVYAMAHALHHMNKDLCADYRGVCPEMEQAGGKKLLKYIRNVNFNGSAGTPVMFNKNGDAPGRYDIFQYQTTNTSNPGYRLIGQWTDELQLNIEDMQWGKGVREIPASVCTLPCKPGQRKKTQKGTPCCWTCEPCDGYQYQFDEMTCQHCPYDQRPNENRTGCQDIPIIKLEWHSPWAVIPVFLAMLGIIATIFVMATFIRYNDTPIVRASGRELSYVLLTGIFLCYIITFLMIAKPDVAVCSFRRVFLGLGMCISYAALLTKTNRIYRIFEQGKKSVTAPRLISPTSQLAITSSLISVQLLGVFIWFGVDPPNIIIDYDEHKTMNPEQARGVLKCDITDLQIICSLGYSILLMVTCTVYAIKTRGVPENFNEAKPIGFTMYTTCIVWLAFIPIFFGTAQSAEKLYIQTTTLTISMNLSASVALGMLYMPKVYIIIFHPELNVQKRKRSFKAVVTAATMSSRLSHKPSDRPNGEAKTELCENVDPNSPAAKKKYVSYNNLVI
# Chain of Metabotropic glutamate receptor 4 (Q14833 whole entry): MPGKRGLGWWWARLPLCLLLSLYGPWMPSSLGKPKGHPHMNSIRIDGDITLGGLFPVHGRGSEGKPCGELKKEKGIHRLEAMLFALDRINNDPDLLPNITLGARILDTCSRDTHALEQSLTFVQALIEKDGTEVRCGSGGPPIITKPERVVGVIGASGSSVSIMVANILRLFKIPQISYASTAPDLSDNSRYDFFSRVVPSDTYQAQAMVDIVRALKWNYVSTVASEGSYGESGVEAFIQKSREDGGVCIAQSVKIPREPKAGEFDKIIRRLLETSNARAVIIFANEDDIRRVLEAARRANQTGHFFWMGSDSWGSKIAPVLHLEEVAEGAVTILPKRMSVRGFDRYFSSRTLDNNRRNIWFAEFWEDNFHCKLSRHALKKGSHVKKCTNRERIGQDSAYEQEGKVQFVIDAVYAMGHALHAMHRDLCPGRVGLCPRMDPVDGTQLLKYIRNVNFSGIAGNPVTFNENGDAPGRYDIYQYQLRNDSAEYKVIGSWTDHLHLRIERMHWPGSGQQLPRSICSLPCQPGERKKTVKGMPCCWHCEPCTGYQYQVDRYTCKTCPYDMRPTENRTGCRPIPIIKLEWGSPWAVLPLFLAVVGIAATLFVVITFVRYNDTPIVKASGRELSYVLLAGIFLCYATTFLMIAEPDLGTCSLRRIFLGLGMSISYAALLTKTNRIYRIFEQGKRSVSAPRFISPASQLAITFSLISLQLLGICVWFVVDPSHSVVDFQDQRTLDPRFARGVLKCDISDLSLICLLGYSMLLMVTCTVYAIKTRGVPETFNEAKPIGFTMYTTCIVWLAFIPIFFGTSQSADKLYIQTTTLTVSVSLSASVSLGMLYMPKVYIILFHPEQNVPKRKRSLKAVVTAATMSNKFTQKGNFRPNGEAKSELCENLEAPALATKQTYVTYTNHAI
# Chain of Metabotropic glutamate receptor 1 (Q13255 whole entry): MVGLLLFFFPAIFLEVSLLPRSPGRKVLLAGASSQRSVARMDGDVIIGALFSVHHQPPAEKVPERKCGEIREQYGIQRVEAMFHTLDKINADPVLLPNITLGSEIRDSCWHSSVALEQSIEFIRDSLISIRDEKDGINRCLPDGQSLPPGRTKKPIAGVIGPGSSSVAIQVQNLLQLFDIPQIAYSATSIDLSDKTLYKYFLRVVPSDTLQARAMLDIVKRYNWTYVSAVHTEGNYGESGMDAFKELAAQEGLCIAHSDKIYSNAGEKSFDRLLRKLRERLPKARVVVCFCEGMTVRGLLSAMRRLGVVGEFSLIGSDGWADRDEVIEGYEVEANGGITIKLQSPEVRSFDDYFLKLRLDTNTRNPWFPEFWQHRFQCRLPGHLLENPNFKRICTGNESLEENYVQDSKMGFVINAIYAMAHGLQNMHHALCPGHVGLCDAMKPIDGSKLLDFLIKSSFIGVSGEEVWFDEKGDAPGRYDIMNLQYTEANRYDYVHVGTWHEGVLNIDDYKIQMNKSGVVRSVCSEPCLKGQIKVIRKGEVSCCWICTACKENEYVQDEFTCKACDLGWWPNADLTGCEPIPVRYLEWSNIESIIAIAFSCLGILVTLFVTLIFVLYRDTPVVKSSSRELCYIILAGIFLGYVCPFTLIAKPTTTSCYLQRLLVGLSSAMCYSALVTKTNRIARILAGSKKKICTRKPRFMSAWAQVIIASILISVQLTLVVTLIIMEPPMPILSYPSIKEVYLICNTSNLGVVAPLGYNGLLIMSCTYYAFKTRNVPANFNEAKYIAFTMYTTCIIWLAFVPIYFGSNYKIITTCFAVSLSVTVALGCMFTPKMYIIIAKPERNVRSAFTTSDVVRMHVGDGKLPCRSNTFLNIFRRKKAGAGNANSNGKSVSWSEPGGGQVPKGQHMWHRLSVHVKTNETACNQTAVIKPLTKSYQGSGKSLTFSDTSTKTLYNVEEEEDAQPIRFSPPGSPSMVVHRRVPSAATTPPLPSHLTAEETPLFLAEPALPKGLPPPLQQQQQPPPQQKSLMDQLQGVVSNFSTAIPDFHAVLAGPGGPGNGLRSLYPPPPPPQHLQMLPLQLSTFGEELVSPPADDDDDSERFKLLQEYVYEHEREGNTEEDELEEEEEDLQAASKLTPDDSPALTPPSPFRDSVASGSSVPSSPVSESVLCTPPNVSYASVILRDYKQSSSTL
# Chain of Metabotropic glutamate receptor 5 (P41594 whole entry): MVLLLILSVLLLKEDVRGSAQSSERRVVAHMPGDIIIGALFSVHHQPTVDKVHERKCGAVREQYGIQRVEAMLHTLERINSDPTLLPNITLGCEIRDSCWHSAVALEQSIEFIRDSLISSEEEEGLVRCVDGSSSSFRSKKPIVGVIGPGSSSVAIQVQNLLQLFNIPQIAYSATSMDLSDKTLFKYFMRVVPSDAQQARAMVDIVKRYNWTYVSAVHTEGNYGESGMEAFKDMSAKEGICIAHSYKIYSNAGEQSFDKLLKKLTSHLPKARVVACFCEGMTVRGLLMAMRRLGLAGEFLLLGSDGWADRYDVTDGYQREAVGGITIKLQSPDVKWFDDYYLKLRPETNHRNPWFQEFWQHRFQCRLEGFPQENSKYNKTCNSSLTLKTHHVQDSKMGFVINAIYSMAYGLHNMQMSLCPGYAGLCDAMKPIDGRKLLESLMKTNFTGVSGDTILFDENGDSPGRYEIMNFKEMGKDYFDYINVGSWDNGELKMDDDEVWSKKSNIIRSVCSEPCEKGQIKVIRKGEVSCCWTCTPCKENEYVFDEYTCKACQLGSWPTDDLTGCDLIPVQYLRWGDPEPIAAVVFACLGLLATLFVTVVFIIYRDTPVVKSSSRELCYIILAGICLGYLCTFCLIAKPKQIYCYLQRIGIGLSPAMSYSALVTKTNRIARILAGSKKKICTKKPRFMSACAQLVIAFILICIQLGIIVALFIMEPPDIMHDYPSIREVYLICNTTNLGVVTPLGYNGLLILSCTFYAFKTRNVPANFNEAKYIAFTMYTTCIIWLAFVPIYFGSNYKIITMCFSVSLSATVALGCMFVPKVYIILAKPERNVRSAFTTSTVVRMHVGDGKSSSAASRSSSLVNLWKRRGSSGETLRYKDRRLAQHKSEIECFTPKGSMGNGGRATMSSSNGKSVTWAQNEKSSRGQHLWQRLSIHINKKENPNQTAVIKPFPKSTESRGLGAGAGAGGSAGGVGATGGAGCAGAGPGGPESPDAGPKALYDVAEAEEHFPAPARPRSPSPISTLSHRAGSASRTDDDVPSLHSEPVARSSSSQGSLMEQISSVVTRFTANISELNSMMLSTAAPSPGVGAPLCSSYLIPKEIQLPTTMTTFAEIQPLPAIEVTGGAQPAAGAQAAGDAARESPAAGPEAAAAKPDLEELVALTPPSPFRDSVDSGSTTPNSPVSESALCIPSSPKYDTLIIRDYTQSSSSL
# Chain of Metabotropic glutamate receptor 3 (Q14832 whole entry): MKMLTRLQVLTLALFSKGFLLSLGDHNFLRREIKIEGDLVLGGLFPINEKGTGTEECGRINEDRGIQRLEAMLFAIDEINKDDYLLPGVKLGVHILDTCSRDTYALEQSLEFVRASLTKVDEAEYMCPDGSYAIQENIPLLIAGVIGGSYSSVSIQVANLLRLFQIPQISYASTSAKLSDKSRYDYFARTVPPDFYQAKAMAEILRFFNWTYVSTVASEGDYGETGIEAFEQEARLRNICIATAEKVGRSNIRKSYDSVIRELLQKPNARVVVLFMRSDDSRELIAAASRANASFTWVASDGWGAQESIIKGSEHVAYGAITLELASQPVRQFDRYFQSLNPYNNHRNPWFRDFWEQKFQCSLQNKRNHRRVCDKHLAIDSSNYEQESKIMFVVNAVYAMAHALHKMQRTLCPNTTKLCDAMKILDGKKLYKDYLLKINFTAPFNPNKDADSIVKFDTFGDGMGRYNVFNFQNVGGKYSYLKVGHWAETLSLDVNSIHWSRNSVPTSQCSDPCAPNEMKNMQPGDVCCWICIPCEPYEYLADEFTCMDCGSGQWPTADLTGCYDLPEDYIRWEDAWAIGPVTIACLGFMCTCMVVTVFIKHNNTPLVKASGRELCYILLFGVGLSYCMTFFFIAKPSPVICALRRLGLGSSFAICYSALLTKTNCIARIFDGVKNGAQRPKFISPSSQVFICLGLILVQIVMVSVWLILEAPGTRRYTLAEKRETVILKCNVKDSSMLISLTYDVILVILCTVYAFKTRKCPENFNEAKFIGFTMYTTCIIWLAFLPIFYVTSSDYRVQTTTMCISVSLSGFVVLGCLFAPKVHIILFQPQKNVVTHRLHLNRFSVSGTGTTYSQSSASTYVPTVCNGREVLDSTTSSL
SMILES,EC50 [2] [nM],EC50 [6] [nM],EC50 [7] [nM],other results
Cc1ccc2c(c1)C(=O)N(c1ccc(NC(=O)c3occc3C)c(F)c1)C2=O,22,> 30000,> 30000,EC50 [1]: > 30000 nM; EC50 [3]: > 30000 nM; EC50 [4]: > 30000 nM; EC50 [5]: > 30000 nM; EC50 [8]: > 30000 nM
Cc1ccoc1C(=O)Nc1c(F)cc(N2C(=O)[C@H]3CC=CC[C@H]3C2=O)c(F)c1F,> 10000,–,–,–
Cc1ccoc1C(=O)Nc1c(F)cc(N2C(=O)c3cccc(F)c3C2=O)c(F)c1F,> 10000,–,–,–
Cc1cc(NC(=O)c2occc2C)c(F)cc1N1C(=O)c2ccccc2C1=O,–,–,–,fraction unbound [9]: 0.012
Cc1ccoc1C(=O)Nc1ccc(N2C(=O)c3ccccc3C2=O)c(C#N)c1,> 10000,–,–,–
Cc1ccoc1C(=O)Nc1cc(F)c(N2C(=O)c3ccccc3C2=O)c(F)c1,> 10000,–,–,–
O=C(Nc1ccc(N2C(=O)C3C(C2=O)[C@H]2C=C[C@@H]3C2)cc1)c1ccccn1 (some centres not stated),> 30000,–,–,–
Cc1cc(N2C(=O)C3=C(CCCC3)C2=O)c(F)cc1NC(=O)c1ccco1,> 10000,377,89,–
Cc1ccoc1C(=O)Nc1c(F)cc(N2C(=O)C3=C(CCCC3)C2=O)c(F)c1F,> 10000,–,–,–
Cc1ccoc1C(=O)Nc1c(F)cc(N2C(=O)c3ccccc3C2=O)cc1F,> 10000,–,–,–
Cc1ccoc1C(=O)Nc1cc(F)c(N2C(=O)c3cccc(Cl)c3C2=O)c(F)c1F,–,–,–,fraction unbound [9]: 0.012
Cc1ccoc1C(=O)Nc1c(F)cc(N2C(=O)c3ccc(F)cc3C2=O)c(F)c1F,> 10000,–,–,–
Cc1cc(N2C(=O)C3=C(CCCC3)C2=O)c(F)cc1NC(=O)c1occc1C,58,372,266,fraction unbound [9]: 0.012
Cc1nc(C(=O)Nc2cc(F)c(N3C(=O)C4=C(CCCC4)C3=O)cc2C)cs1,> 10000,1340,175,–
Cc1ccoc1C(=O)Nc1c(F)cc(N2C(=O)c3ccc(Cl)cc3C2=O)c(F)c1F,> 10000,–,–,–
Cc1cc(N2C(=O)C3=C(CCCC3)C2=O)c(F)cc1NC(=O)c1ccc(Cl)o1,> 10000,400,229,–
